Data: ChEMBL document CHEMBL5365467 (J Med Chem, 2023)

Legend:
Androgen receptor = target: T1, Androgen receptor (Homo sapiens, UniProt P10275)
T1 sequence (P10275 whole entry): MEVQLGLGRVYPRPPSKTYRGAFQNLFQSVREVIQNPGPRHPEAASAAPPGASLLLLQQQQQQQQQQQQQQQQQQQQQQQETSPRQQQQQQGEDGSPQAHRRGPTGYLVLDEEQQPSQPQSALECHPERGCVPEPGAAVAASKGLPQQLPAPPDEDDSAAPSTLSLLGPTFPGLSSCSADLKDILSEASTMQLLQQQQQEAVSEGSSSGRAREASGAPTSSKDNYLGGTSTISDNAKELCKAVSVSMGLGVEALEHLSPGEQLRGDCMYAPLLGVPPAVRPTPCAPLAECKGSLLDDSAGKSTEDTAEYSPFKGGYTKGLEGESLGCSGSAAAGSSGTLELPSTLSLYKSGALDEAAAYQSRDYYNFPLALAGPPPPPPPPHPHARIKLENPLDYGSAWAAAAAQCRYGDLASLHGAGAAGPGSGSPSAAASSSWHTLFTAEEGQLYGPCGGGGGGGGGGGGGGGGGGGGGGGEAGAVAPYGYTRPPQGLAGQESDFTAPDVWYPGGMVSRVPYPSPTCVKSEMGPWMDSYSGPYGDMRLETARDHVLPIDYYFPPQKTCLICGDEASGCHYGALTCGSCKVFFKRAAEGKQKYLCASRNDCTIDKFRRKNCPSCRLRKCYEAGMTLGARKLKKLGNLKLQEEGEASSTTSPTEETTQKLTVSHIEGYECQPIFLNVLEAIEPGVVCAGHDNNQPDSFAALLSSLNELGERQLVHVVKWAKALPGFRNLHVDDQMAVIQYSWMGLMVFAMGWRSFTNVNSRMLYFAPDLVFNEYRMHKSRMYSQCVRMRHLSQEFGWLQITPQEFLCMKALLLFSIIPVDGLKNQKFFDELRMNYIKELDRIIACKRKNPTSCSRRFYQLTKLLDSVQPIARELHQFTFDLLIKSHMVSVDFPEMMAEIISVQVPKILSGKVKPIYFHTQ

[1] = target: Protein cereblon/Androgen receptor (Homo sapiens, UniProt P10275+Q96SW2); test: PROTAC activity at AR/CRBN in AR-positive human VCaP cells assessed as induction of androgen receptor degradation measured at 24 hrs; type: cell-based; conditions: read-out: DC50
Protein cereblon = Protein cereblon (Homo sapiens, UniProt Q96SW2); test: Binding affinity to CRBN (unknown origin) assessed as inhibition constant
[2] = target: Protein cereblon/Androgen receptor (Homo sapiens, UniProt P10275+Q96SW2, T878A); test: PROTAC activity at AR T878A mutant/CRBN in human LNCaP cells assessed as induction of androgen receptor degradation measured at 24 hrs by Western blot analysis; type: cell-based
VCaP = test: Growth inhibition in human VCaP cells
[3] = Half life in Sprague-Dawley rat at 1 mg/kg, iv measured upto 24 hrs by LC-MS/MS analysis; type: ADME, organism-based; conditions: in vivo
[4] = AUC (0 to t) in Sprague-Dawley rat at 1 mg/kg, iv measured upto 24 hrs by LC-MS/MS analysis; type: ADME, organism-based; parameters: dose 1 mg/kg, time < 24 hrs, route iv; conditions: in vivo
[5] = Volume of distribution at steady state in Sprague-Dawley rat at 1 mg/kg, iv measured upto 24 hrs by LC-MS/MS analysis; type: ADME, organism-based; conditions: in vivo, read-out: Vdss
[6] = Clearance in Sprague-Dawley rat at 1 mg/kg, iv measured upto 24 hrs by LC-MS/MS analysis; type: ADME, organism-based; conditions: in vivo
[7] = Half life in Sprague-Dawley rat at 5 mg/kg, po measured upto 24 hrs by LC-MS/MS analysis; conditions: in vivo
[8] = Cmax in Sprague-Dawley rat at 3 mg/kg, po measured upto 24 hrs by LC-MS/MS analysis; type: ADME, organism-based; parameters: dose 3 mg/kg, time < 24 hrs, route po; conditions: in vivo
[9] = AUC (0 to t) in Sprague-Dawley rat at 3 mg/kg, po measured upto 24 hrs by LC-MS/MS analysis; type: ADME, organism-based; parameters: dose 3 mg/kg, time < 24 hrs, route po; conditions: in vivo
[10] = Oral bioavailability in Sprague-Dawley rat at 3 mg/kg measured upto 24 hrs by LC-MS/MS analysis; type: ADME, organism-based; conditions: in vivo
[11] = Half life in Sprague-Dawley rat at 2 mg/kg, iv measured upto 24 hrs by LC-MS/MS analysis; conditions: in vivo
[12] = Volume of distribution at steady state in Sprague-Dawley rat at 2 mg/kg, iv measured upto 24 hrs by LC-MS/MS analysis; conditions: in vivo
[13] = Clearance in Sprague-Dawley rat at 2 mg/kg, iv measured upto 24 hrs by LC-MS/MS analysis; conditions: in vivo
in vivo [14] = conditions: Sprague-Dawley, rat, iv, 2 mg/kg
in vivo [15] = conditions: Sprague-Dawley, rat, po, 5 mg/kg
in vivo [16] = conditions: Sprague-Dawley, rat, po, 5 mg/kg; remark: listed apart in the source
in vivo [17] = conditions: Sprague-Dawley, rat, po, 5 mg/kg; remark: listed apart in the source

Protein cereblon/Androgen receptor (Homo sapiens, UniProt P10275+Q96SW2), sequence (Q96SW2 whole entry, one chain of several): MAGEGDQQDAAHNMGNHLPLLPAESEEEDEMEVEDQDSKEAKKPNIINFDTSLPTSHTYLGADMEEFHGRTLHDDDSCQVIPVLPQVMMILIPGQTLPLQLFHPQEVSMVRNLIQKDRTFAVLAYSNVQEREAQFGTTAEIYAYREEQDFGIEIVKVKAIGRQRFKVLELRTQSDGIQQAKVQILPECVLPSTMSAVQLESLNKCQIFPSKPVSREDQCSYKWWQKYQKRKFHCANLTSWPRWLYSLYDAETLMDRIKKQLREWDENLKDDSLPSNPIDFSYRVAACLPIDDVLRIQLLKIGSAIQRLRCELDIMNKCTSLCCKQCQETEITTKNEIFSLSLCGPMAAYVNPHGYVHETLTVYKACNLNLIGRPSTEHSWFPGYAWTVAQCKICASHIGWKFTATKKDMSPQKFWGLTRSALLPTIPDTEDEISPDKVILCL
Protein cereblon, sequence (Q96SW2 whole entry): as the sequence (Q96SW2 whole entry, one chain of several) above

Question: With `CN1CCN(c2ccc(C(=O)N3CCC4(CC3)CN(c3ccc(C#N)c(Cl)c3)C4)cc2)CC1` as the compound, how does the IC50 (Androgen receptor) read?
Answer: > 10000 nM

Question: Which IC50 (Androgen receptor) does the source give for `CN1CCN(c2ccc(C(=O)N3CCC4(CC3)CCN(c3ccc(C#N)c(Cl)c3)C4)cc2)CC1` here?
Answer: 3600 nM

Question: With `N#Cc1ccc(N2CCC3(CCN(c4ccc(C(=O)N5CCC(CN6CCc7cc8c(cc7C6)C(=O)N(C6CCC(=O)NC6=O)C8=O)CC5)cc4)CC3)C2)cc1Cl` (stereo not given) as the compound, how does the DC50 [1] read?
Answer: 25 nM

Question: Which Ki (Protein cereblon) does the source give for `CN1CCc2cc3c(cc2C1)C(=O)N(C1CCC(=O)NC1=O)C3=O` (stereo not given) here?
Answer: 6000 nM

Question: For `C[C@H]1CC2(CCN(c3ccc(C(=O)N4CCC(CN5Cc6cc7c(cc6C5)C(=O)N(C5CCC(=O)NC5=O)C7=O)CC4)nc3)CC2)CN1c1ccc(C#N)c(Cl)c1` (stereo not given in full), which DC50 [1] is on record?
Answer: 15.6 nM

Question: And the DC50 [2]?
Answer: 4.6 nM

Question: What about the IC50 (VCaP) of the same compound?
Answer: 46 nM

Question: For `C[C@H]1CC2(CCN(c3ccc(C(=O)N4CCC(CN5Cc6cc7c(cc6C5)C(=O)N(C5CCC(=O)NC5=O)C7=O)CC4)nn3)CC2)CN1c1ccc(C#N)c(Cl)c1` (stereo not given in full), which DC50 [1] is on record?
Answer: 2.7 nM

Question: What about the DC50 [2] of the same compound?
Answer: 0.5 nM

Question: What about the IC50 (VCaP) of the same compound?
Answer: 20 nM

Question: And the half-life [3]?
Answer: 2 h

Question: And the AUC(0-t) at 24 h [4]?
Answer: 1010 ng·h/mL

Question: What about the Vd [5] of the same compound?
Answer: 2.2 L/kg

Question: What about the clearance [6] of the same compound?
Answer: 32.3 mL/min/kg

Question: And the half-life at 24 h [7]?
Answer: 1.4 h

Question: What about the Cmax [8] of the same compound?
Answer: 247 ng/mL

Question: And the AUC(0-t) at 24 h [9]?
Answer: 1100 ng·h/mL

Question: What about the bioavailability [10] of the same compound?
Answer: 36%

Question: Which IC50 (Androgen receptor) does the source give for `CN1CCN(c2ccc(C(=O)N3CCC4(CCN(c5ccc(C#N)c(Cl)c5)CC4)C3)cc2)CC1` here?
Answer: 5000 nM

Question: For `CN1CCN(c2ccc(C(=O)N3CCC4(CCN(c5ccc(C#N)c(Cl)c5)C4)C3)cc2)CC1` (stereo not given), which IC50 (Androgen receptor) is on record?
Answer: 6900 nM

Question: Which Ki (Protein cereblon) does the source give for `CN1CCN(c2cc3c(cc2F)C(=O)N(C2CCC(=O)NC2=O)C3=O)CC1` (stereo not given) here?
Answer: 4900 nM

Question: For `CN1CCN(C(=O)c2ccc(N3CCC4(CC3)CCN(c3ccc(C#N)c(Cl)c3)C4)cc2)CC1`, which IC50 (Androgen receptor) is on record?
Answer: 80 nM

Question: Which IC50 (Androgen receptor) does the source give for `CN1CCN(C(=O)c2ccc(N3CCC4(CCN(c5ccc(C#N)c(Cl)c5)C4)C3)cc2)CC1` (stereo not given) here?
Answer: 1800 nM

Question: For `C[C@H]1CC2(CCN(c3ccc(C(=O)N4CC(N5Cc6cc7c(cc6C5)C(=O)N(C5CCC(=O)NC5=O)C7=O)C4)cc3)CC2)CN1c1ccc(C#N)c(Cl)c1` (stereo not given in full), which DC50 [1] is on record?
Answer: 0.7 nM

Question: And the DC50 [2]?
Answer: 5 nM

Question: What about the IC50 (VCaP) of the same compound?
Answer: 85 nM

Question: And the half-life at 24 h [11]?
Answer: 3.2 h

Question: And the Vd at 24 h [12]?
Answer: 2.7 L/kg

Question: And the clearance at 24 h [13]?
Answer: 14.5 mL/min/kg

Question: And the half-life at 24 h [7]?
Answer: 1.89 h

Question: And the AUC(0-t) at 24 h (in vivo [14])?
Answer: 2370 ng·h/mL

Question: And the Cmax at 24 h (in vivo [15])?
Answer: 94 ng/mL

Question: What about the AUC(0-t) at 24 h (in vivo [16]) of the same compound?
Answer: 423 ng·h/mL

Question: What about the bioavailability at 24 h (in vivo [17]) of the same compound?
Answer: 7.2%

Question: Which IC50 (VCaP) does the source give for `CC[C@H]1CC2(CCN(c3ccc(C(=O)N4CCC(CN5Cc6cc7c(cc6C5)C(=O)N(C5CCC(=O)NC5=O)C7=O)CC4)cc3)CC2)CN1c1ccc(C#N)c(Cl)c1` (stereo not given in full) here?
Answer: 23 nM

Question: For `CN1CCN(c2ccc(C(=O)N3CCC4(C3)CN(c3ccc(C#N)c(Cl)c3)C4)cc2)CC1`, which IC50 (Androgen receptor) is on record?
Answer: 9900 nM

Question: Which DC50 [1] does the source give for `C[C@H]1CC2(CCN(c3ccc(C(=O)N4CCC(CN5Cc6cc7c(cc6C5)C(=O)N(C5CCC(=O)NC5=O)C7=O)CC4)cn3)CC2)CN1c1ccc(C#N)c(Cl)c1` (stereo not given in full) here?
Answer: 2.3 nM

Question: And the DC50 [2]?
Answer: 2.2 nM

Question: And the IC50 (VCaP)?
Answer: 11 nM

Question: For `C[C@H]1CC2(CCN(c3ccc(C(=O)N4CCC(C)(CN5Cc6cc7c(cc6C5)C(=O)N(C5CCC(=O)NC5=O)C7=O)CC4)cc3)CC2)CN1c1ccc(C#N)c(Cl)c1` (stereo not given in full), which DC50 [1] is on record?
Answer: 3.8 nM

Question: And the DC50 [2]?
Answer: 8.9 nM

Question: And the IC50 (VCaP)?
Answer: 42 nM

Question: What about the half-life at 24 h [11] of the same compound?
Answer: 6.1 h

Question: What about the Vd at 24 h [12] of the same compound?
Answer: 3.1 L/kg

Question: And the clearance at 24 h [13]?
Answer: 6.33 mL/min/kg

Question: What about the half-life at 24 h [7] of the same compound?
Answer: 8.4 h

Question: And the AUC(0-t) at 24 h (in vivo [14])?
Answer: 5090 ng·h/mL

Question: And the Cmax at 24 h (in vivo [15])?
Answer: 539 ng/mL

Question: What about the AUC(0-t) at 24 h (in vivo [16]) of the same compound?
Answer: 5730 ng·h/mL

Question: What about the bioavailability at 24 h (in vivo [17]) of the same compound?
Answer: 45%
